Results published in article PMC11714206, “Massively Parallel Screening of Toll/Interleukin‐1 Receptor (TIR)‐Derived Peptides Reveals Multiple Toll‐Like Receptors (TLRs)‐Targeting Immunomodulatory Peptides” (Advanced Science, 2024).

Target: T1, MAL^TIR (Homo sapiens, UniProt P58753)
T1 construct: MAL (residues 79–221); 6xHis; made in house; host or cells: E. coli BL21 (DE3)
Experiment: T‐Surf phage library (P8 and P3) selection against MAL^TIR, four rounds, NGS read counts
Format: binding
Details: for P3_MAL Rank (after) / P3_MAL Rank (before): P3 library; for P8_MAL Rank (after) / P8_MAL Rank (before): P8 library; for Population: P3_MAL pool: P3 T-Surf phage library, 4th round of selection against MAL TIR, share of NGS reads
Protocol: T‐Surf libraries were screened against the immobilized TIR domains of two major human TLR adaptor proteins, MAL^TIR and MyD88^TIR, allowing cross‐species selection of TIR‐binding motifs with 190 946 TIR‐derived peptides in a single binding assay (Scheme 1). Enriched phage pools from the fourth round of selection were analyzed using NGS after barcoding the peptide‐coding regions of the phage pools.
Phage display screening was performed by coating two wells of a 96‐well plate (Maxisorp, Thermo Fisher Scientific) with 100 µL of 5 µg mL^−1 TIR domains overnight; then, the coated wells were blocked with 200 µL of blocking buffer (0.2% BSA in PBS) and set aside for 1 h at 4 °C with gentle shaking. Next, 100 µL of the phage library was added to the wells and incubated for 1 h at room temperature (RT; 20 – 22 °C) with gentle shaking. The plate was washed four times with PBS containing 0.5% Tween‐20; the bound phages were eluted by adding 100 µL of 100 mM HCl to each well. The elute was neutralized with 10 µL of 1.0 M Tris‐HCl (pH 11.0). E. coli TG1 cells were grown to the log phase (A600 = ≈0.6), and 1 mL of the culture was incubated with 100 µL of the eluted phages for 30 min at 37 °C, with shaking at 200 rpm. Next, 1 µL of M13KO7 helper phages was added, followed by incubation for 45 min at 37 °C, with shaking. Subsequently, the cells were transferred to 25 mL of 2× yeast extract tryptone/carbenicillin/kanamycin medium and incubated overnight at 37 °C with shaking at 200 rpm. The amplified phages were precipitated with 20% PEG‐8000/2.5 M NaCl to be used for the next round of selection.
The naïve T‐Surf libraries in P8 and P3 and the enriched phage pools after four rounds were barcoded for NGS as previously described.^[ [59] ^] Briefly, 5 µL of the phage pool was used as a template for 20 cycles of a 50 µL PCR reaction using […] each of forward and reverse barcoded primers and PrimeSTAR Max DNA Polymerase. The PCR products were purified using Expin Gel SV (GeneAll). The NGS samples were quantified using qPCR, following the qPCR Quantification Protocol Guide (KAPA Library Quantification kits for Illumina Sequencing Platform), and qualified using the TapeStation High Sensitivity D1000 ScreenTape (Agilent Technologies). The indexed libraries were further sequenced by Macrogen (Seoul, Republic of Korea) using the NovaSeq platform (Illumina) with 100 bp paired‐end reads. The reads were demultiplexed by barcodes and filtered for an average Phred quality score of at least 30, followed by trimming the flanking consensus sequences using Cutadapt (version 2.3). Peptide sequence populations were analyzed according to the read counts.

[1] = P8_MAL: rank by count after grouping
[2] = P8_MAL: rank by count before grouping
[3] = selection against MAL, rank by count after grouping
[4] = selection against MAL, rank by count before grouping
[5] = selection against MAL TIR, rank by count after grouping
[6] = selection against MAL TIR, rank by count before grouping
[7] = 4R selection against MAL, rank after grouping
[8] = 4R selection against MAL, rank before grouping
[9] = P3_MAL: rank by count after grouping
[10] = P3_MAL: rank by count before grouping
[11] = selection against MAL, rank after grouping
[12] = selection against MAL, rank before grouping

T1 sequence (P58753 79-221): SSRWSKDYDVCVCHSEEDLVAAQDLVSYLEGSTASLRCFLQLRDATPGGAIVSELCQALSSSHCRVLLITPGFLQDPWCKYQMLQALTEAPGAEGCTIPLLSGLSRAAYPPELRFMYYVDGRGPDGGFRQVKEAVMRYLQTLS

AVRYTILINLTHTTNF
Rank (after) [1]: 462
Rank (before) [2]: 1955

AWFRESLSRRLKGLLT
P3_MAL Rank (after) [3]: 708
P3_MAL Rank (before) [4]: 1810

AYANFRQGLLRLPELLR
P8_MAL Rank (after) [5]: 278
P8_MAL Rank (before) [6]: 1946

AYAYSRLVLLPLLELS
Rank (after) [1]: 472
Rank (before) [2]: 1943

AYLNTFLINLTHPTNF
Rank (after) [1]: 149
Rank (before) [2]: 1951

CFLFTVRSAIYAMNPA
Rank (after) [1]: 445
Rank (before) [2]: 1109

CFLQNLCYALTYRPAT
P3_MAL Rank (after) [7]: 637
P3_MAL Rank (before) [8]: 1215

CFYEGQLFLALADKSI
P8_MAL Rank (after) [5]: 284
P8_MAL Rank (before) [6]: 1106

CFYERLVNLILRDTKV
P8_MAL Rank (after) [5]: 205
P8_MAL Rank (before) [6]: 1107

CFYQRLVSLILHDTKV
P8_MAL Rank (after) [5]: 256
P8_MAL Rank (before) [6]: 1108

CLLKWKEALHQFHSGV
Rank (after) [9]: 447
Rank (before) [10]: 1216

CRFRQGLWRLLELSKK
P3_MAL Rank (after) [7]: 611
P3_MAL Rank (before) [8]: 1323

CVYRPSASLSGAAWR
P3_MAL Rank (after) [11]: 568
P3_MAL Rank (before) [12]: 1321

DAEDMFWTQLREALDA
P8_MAL Rank (after) [7]: 602
P8_MAL Rank (before) [8]: 1987

DDAVWVYEHLVKFLEG
P8_MAL Rank (after) [7]: 617
P8_MAL Rank (before) [8]: 1988

DFLNWFIALKSTVLET
P8_MAL Rank (after) [7]: 598
P8_MAL Rank (before) [8]: 1976

DFLSHLIEAFSRMHIN
P8_MAL Rank (after) [11]: 504
P8_MAL Rank (before) [12]: 1972

DFSHFWLFEAGGDAAI
P8_MAL Rank (after) [11]: 532
P8_MAL Rank (before) [12]: 1981

DHHLDLPLAKRLNRKFW
P3_MAL Rank (after) [11]: 492
P3_MAL Rank (before) [12]: 1922

DHHLNPPPGKAIKPEMLG
Rank (after) [9]: 442
Rank (before) [10]: 1951

DIQSSRLKDDADLVGQ
P3_MAL Rank (after) [7]: 655
P3_MAL Rank (before) [8]: 1960

DLFLSKLSQHILKREK
Population: 0.00376%

DLFLSKLSQHLLKREK
Rank (after) [9]: 455
Rank (before) [10]: 1861

DLLNGFIALKSTVIEN
P8_MAL Rank (after) [3]: 717
P8_MAL Rank (before) [4]: 1982

DPKLNTGESIAPELLR
P8_MAL Rank (after) [11]: 493
P8_MAL Rank (before) [12]: 1991

DPQDLEWFYERLFSQM
P8_MAL Rank (after) [5]: 234
P8_MAL Rank (before) [6]: 876

DPQDLQWFYERLVSLI
Rank (after) [1]: 447
Rank (before) [2]: 1990

DQCRNALTAAANLSGW
P3_MAL Rank (after) [5]: 201
P3_MAL Rank (before) [6]: 1953

DQWRNALTAAANLSGW
Population: 0.00526%

DSHSSRFKEDAELGGQ
P3_MAL Rank (after) [3]: 687
P3_MAL Rank (before) [4]: 1963

DSKLKKGESIAPALLR
P8_MAL Rank (after) [5]: 215
P8_MAL Rank (before) [6]: 1986

DSLFWDRLLYSLHVTE
Rank (after) [1]: 157
Rank (before) [2]: 877

DTALTNSGFHIFRDNE
P3_MAL Rank (after) [3]: 689
P3_MAL Rank (before) [4]: 1984

DTILKKGEGIAPELLR
P8_MAL Rank (after) [7]: 659
P8_MAL Rank (before) [8]: 1999

DTILKKGESIAPELLG
P8_MAL Rank (after) [11]: 548
P8_MAL Rank (before) [12]: 2000

DTKLKKCESIAPELLL
P8_MAL Rank (after) [5]: 204
P8_MAL Rank (before) [6]: 2014

DTRYTFIAHLSHALNL
P8_MAL Rank (after) [7]: 651
P8_MAL Rank (before) [8]: 2040

DWCLSKLSQHTLKREK
Rank (after) [9]: 481
Rank (before) [10]: 1908

DWFLSHLRHHLQAKDH
Rank (after) [9]: 183
Rank (before) [10]: 779

DWFLSKLNQHLLKREK
Rank (after) [9]: 424
Rank (before) [10]: 1898

DWFLSKLSQHILKKG
Rank (after) [9]: 393
Rank (before) [10]: 1892

DWFLSKLSQHILRHEK
P3_MAL Rank (after) [3]: 722
P3_MAL Rank (before) [4]: 1886

DWFLSKLSQHLLKRAK
P3_MAL Rank (after) [3]: 682
P3_MAL Rank (before) [4]: 1882
